Measurements reported in US11572369B2, “Bicyclic pyridine compositions and methods of using the same for cancer therapy” (UNIVERSITY OF SOUTH CAROLINA, priority 2019, dated 2023).

Experiments:
Assay in all cases: KINOMEscan
Type in all cases: binding
Details in all cases: 2000 nM
[1] = biological target: T1, PKAC-alpha (Homo sapiens, UniProt P17612)
T1 construct: DNA label (qPCR read-out); purchased KINOMEscan (DiscoveRx) panel

[2] = biological target: MARK3 (Homo sapiens, UniProt P27448)
[3] = biological target: T2, BRSK2 (Homo sapiens, UniProt Q8IWQ3)
T2 construct: DNA label (for qPCR read-out); purchased KINOMEscan scanMAX panel (DiscoveRx)

[4] = biological target: T3, NLK (Homo sapiens, UniProt Q9UBE8)
T3 construct: DNA label (qPCR read-out); purchased KINOMEscan (ScanMAX panel service)

[5] = biological target: T4, RAF1 (Homo sapiens, UniProt P04049)
T4 construct: purchased DiscoveRx (KINOMEscan scanMAX panel)

[6] = biological target: T5, PIK3CA(H1047Y) (Homo sapiens, UniProt P42336, H1047Y)
T5 construct: DNA label; purchased DiscoveRx (KINOMEscan scanMAX panel)

[7] = biological target: T6, AXL (Homo sapiens, UniProt P30530)
T6 construct: DNA label (qPCR read-out); purchased KINOMEscan scanMAX panel (DiscoveRx)

[8] = biological target: T7, CSNK1G1 (Homo sapiens, UniProt Q9HCP0)
T7 construct: DNA label; purchased DiscoveRx (KINOMEscan scanMAX panel)

[9] = biological target: T8, EGFR(S752-I759del) (Homo sapiens, UniProt P00533, DEL752-759)
T8 construct: purchased DiscoveRx (KINOMEscan scanMAX panel)

[10] = biological target: T9, DCAMKL1 (Homo sapiens, UniProt O15075)
T9 construct: DNA label (qPCR read-out); purchased KINOMEscan (DiscoveRx) panel

[11] = biological target: MAP4K2 (Homo sapiens, UniProt Q12851)
[12] = biological target: T10, PAK2 (Homo sapiens, UniProt Q13177)
T10 construct: purchased DiscoverX (KINOMEscan service)

[13] = biological target: T11, EPHA2 (Homo sapiens, UniProt P29317)
T11 construct: purchased DiscoveRx (KINOMEscan scanMAX panel)

[14] = biological target: T12, KIT(L576P) (Homo sapiens, UniProt P10721, L576P)
T12 construct: DNA label (for qPCR read-out); purchased DiscoveRx (KINOMEscan scanMAX panel)

[15] = biological target: T13, PHKG2 (Homo sapiens, UniProt P15735)
T13 construct: DNA label (for qPCR read-out); purchased DiscoveRx (KINOMEscan scanMAX service)

[16] = biological target: T14, KIT(V559D) (Homo sapiens, UniProt P10721, V559D)
T14 construct: DNA label (for qPCR read-out); purchased DiscoveRx (KINOMEscan scanMAX panel)

[17] = biological target: ABL1(T315I)-nonphosphorylated (Homo sapiens, UniProt P00519, T315I)
[18] = biological target: T15, EGFR(E746-A750del) (Homo sapiens, UniProt P00533, DEL746-750)
T15 construct: purchased DiscoveRx (KINOMEscan scanMAX panel)

[19] = biological target: T16, MEK6 (Homo sapiens, UniProt P52564)
T16 construct: purchased DiscoveRx (KINOMEscan scanMAX panel, service)

[20] = biological target: T17, QSK (Homo sapiens, UniProt Q9Y2K2)
T17 construct: purchased DiscoveRx (KINOMEscan scanMAX panel)

[21] = biological target: T18, TAOK3 (Homo sapiens, UniProt Q9H2K8)
T18 construct: DNA label (for qPCR read-out); purchased DiscoveRx (KINOMEscan scanMAX panel, contract assay)

[22] = biological target: T19, CDKL1 (Homo sapiens, UniProt Q00532)
T19 construct: purchased DiscoverX (KINOMEscan service)

[23] = biological target: ZAK (Homo sapiens, UniProt Q9NYL2)
[24] = biological target: T20, MELK (Homo sapiens, UniProt Q14680)
T20 construct: purchased DiscoveRx (KINOMEscan scanMAX panel, service)

[25] = biological target: T21, CAMKK2 (Homo sapiens, UniProt Q96RR4)
T21 construct: DNA label (qPCR read-out); purchased KINOMEscan (ScanMAX panel service)

[26] = biological target: T22, PAK1 (Homo sapiens, UniProt Q13153)
T22 construct: purchased DiscoverX (KINOMEscan service)

[27] = biological target: T23, PCTK1 (Homo sapiens, UniProt Q00536)
T23 construct: purchased DiscoverX (KINOMEscan service)

[28] = biological target: T24, FGFR2 (Homo sapiens, UniProt P21802)
T24 construct: purchased DiscoveRx (KINOMEscan scanMAX panel)

[29] = biological target: T25, MKK7 (Homo sapiens, UniProt O14733)
T25 construct: DNA label (qPCR read-out); purchased KINOMEscan scanMAX panel (DiscoveRx)

[30] = biological target: T26, ACVR2A (Homo sapiens, UniProt P27037)
T26 construct: purchased DiscoveRx (KINOMEscan scanMAX panel, service)

[31] = biological target: T27, MST2 (Homo sapiens, UniProt Q13188)
T27 construct: DNA label (for qPCR read-out); purchased KINOMEscan scanMAX panel (DiscoveRx)

[32] = biological target: T28, PYK2 (Homo sapiens, UniProt Q14289)
T28 construct: purchased DiscoveRx (KINOMEscan scanMAX panel)

[33] = biological target: T29, CSNK1A1 (Homo sapiens, UniProt P48729)
T29 construct: DNA label (qPCR read-out); purchased DiscoverX (assay service)

[34] = biological target: T30, (Homo sapiens, UniProt P20794)
T30 construct: DNA label (qPCR read-out); purchased DiscoverX (KINOMEscan service)

[35] = biological target: T31, CAMK2A (Homo sapiens, UniProt Q9UQM7)
T31 construct: DNA label (qPCR read-out); purchased KINOMEscan (ScanMAX panel service)

[36] = biological target: T32, MLK1 (Homo sapiens, UniProt P80192)
T32 construct: DNA label (qPCR read-out); purchased KINOMEscan scanMAX panel (DiscoveRx)

T19 sequence (Q00532 whole entry): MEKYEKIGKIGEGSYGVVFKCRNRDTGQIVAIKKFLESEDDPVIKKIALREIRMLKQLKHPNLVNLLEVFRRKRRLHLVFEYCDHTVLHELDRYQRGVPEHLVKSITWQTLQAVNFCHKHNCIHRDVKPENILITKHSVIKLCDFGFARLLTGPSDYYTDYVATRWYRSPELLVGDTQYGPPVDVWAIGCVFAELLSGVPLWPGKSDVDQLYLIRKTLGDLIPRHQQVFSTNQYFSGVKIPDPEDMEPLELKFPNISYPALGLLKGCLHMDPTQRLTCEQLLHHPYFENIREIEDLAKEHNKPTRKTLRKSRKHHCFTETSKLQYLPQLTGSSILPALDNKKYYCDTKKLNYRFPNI
T11 sequence (P29317 24-976): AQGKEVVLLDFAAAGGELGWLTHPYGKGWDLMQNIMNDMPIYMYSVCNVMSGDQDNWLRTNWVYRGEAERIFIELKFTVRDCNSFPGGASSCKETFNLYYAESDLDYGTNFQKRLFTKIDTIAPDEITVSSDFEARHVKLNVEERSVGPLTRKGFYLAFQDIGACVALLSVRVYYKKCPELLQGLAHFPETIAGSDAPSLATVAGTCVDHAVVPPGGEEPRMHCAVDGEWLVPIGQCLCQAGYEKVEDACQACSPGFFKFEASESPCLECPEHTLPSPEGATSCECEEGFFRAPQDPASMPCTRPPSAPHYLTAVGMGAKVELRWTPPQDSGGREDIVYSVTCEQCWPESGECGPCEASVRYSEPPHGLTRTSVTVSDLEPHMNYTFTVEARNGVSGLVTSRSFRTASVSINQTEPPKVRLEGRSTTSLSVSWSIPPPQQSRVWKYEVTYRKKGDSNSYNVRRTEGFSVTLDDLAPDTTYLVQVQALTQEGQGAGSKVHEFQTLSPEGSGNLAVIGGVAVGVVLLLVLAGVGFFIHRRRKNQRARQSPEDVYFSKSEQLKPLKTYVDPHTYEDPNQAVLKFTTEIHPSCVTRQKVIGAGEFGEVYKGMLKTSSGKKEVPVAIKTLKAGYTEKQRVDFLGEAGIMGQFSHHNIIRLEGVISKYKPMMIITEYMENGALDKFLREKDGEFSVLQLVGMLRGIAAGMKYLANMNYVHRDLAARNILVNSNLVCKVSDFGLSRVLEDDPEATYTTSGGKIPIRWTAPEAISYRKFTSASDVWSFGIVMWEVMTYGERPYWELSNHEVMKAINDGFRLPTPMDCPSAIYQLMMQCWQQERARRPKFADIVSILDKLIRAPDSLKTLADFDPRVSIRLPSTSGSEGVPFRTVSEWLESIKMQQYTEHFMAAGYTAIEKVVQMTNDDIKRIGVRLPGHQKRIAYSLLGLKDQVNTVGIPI
T6 sequence (P30530 26-894): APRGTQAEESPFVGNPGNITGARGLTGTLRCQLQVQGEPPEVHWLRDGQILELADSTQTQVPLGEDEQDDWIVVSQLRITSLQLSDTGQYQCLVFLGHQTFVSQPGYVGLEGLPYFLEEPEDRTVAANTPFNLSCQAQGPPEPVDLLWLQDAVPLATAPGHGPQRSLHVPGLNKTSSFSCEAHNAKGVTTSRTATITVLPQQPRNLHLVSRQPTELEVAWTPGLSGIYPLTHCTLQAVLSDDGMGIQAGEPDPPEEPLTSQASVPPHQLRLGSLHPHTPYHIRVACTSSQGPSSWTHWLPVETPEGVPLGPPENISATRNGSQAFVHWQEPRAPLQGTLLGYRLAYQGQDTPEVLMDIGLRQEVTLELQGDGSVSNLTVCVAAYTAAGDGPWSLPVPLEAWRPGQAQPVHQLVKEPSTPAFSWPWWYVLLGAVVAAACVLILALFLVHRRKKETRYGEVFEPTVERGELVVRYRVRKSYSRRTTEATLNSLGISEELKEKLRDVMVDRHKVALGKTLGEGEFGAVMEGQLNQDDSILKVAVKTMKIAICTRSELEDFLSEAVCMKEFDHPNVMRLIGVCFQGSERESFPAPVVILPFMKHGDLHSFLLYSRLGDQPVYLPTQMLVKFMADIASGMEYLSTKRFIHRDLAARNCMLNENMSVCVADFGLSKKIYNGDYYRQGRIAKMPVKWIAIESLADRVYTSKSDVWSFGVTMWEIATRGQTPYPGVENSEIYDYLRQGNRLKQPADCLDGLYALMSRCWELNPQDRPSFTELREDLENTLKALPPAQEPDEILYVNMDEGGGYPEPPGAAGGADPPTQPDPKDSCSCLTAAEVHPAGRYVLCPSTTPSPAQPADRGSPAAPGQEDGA
Sequence of ZAK (Q9NYL2 whole entry): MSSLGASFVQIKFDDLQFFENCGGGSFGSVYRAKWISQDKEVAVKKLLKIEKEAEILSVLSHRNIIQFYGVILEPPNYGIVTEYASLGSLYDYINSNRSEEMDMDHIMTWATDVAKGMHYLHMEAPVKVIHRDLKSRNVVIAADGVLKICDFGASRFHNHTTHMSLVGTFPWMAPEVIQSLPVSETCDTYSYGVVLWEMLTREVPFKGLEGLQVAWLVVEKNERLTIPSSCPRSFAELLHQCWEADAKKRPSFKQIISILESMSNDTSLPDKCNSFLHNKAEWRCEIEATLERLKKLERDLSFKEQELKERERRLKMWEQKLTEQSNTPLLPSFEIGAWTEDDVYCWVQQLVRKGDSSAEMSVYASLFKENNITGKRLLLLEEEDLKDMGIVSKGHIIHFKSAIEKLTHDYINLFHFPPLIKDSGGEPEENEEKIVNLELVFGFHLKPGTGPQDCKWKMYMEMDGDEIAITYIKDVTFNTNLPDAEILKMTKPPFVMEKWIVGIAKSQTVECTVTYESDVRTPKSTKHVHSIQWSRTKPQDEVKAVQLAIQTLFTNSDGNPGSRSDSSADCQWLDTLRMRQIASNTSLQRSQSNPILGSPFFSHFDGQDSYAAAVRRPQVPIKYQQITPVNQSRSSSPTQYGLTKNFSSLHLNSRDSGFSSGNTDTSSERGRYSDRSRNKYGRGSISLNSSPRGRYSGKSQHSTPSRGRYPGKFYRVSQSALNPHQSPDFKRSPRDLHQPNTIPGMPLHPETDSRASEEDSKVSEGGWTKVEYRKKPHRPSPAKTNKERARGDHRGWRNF
T25 sequence (O14733 whole entry): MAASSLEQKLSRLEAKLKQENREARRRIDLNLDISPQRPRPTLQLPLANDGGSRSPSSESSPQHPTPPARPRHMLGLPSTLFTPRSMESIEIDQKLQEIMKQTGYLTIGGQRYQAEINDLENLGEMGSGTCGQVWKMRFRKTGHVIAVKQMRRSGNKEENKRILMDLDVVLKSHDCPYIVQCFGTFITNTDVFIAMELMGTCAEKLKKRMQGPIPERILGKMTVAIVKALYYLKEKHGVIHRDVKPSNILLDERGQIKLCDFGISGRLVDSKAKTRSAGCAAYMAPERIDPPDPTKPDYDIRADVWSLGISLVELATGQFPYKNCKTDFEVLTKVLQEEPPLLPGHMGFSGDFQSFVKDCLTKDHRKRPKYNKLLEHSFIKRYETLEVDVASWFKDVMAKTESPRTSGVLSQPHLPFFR
T12 sequence (P10721 26-976 L576P): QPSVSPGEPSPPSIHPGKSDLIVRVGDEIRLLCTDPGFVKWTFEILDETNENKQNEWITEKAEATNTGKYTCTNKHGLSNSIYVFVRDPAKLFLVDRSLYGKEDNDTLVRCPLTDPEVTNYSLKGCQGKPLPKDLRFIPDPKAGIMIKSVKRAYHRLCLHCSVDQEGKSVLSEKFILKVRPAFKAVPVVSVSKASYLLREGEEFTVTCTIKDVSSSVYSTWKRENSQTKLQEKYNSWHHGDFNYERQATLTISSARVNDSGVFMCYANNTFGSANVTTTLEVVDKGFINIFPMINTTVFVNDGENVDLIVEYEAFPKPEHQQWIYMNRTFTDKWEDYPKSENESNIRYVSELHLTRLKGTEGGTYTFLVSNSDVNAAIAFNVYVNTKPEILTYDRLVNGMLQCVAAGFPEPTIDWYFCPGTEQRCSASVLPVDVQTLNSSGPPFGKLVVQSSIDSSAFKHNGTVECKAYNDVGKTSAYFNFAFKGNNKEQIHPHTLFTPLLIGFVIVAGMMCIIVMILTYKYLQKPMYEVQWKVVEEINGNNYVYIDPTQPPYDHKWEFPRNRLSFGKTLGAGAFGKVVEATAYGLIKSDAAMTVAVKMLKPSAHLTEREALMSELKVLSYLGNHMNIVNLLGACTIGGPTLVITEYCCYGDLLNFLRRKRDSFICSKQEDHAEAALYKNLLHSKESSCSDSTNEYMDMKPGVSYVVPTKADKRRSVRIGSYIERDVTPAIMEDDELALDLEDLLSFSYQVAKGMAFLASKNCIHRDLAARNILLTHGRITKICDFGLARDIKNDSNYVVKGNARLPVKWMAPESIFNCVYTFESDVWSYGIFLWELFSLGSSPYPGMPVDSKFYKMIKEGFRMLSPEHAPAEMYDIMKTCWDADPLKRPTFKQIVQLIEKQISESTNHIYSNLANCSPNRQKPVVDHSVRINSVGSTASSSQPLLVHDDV
T10 sequence (Q13177 whole entry): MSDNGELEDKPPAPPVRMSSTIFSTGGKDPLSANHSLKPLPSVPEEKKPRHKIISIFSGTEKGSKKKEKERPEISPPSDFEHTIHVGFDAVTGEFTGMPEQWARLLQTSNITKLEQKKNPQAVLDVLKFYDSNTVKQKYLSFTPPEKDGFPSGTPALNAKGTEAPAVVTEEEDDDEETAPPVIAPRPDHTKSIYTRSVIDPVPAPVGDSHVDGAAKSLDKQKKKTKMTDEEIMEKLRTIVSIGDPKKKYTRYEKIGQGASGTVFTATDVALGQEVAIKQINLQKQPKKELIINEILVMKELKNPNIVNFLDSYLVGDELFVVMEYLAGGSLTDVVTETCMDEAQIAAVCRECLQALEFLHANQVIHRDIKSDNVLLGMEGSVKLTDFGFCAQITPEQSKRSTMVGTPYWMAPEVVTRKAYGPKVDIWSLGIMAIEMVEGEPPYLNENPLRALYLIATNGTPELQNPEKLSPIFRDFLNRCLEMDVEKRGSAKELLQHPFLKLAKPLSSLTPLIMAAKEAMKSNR
T14 sequence (P10721 26-976 V559D): as the sequence (P10721 26-976 L576P) above, with V534D, P551L counted along it

Structure (SMILES) | % Ctrl [1] [% Ctrl] | % Ctrl [2] [% Ctrl] | % Ctrl [3] [% Ctrl] | % Ctrl [4] [% Ctrl] | % Ctrl [5] [% Ctrl] | % Ctrl [6] [% Ctrl] | % Ctrl [7] [% Ctrl] | % Ctrl [8] [% Ctrl] | % Ctrl [9] [% Ctrl] | % Ctrl [10] [% Ctrl] | % Ctrl [11] [% Ctrl] | % Ctrl [12] [% Ctrl] | % Ctrl [13] [% Ctrl] | % Ctrl [14] [% Ctrl] | % Ctrl [15] [% Ctrl] | % Ctrl [16] [% Ctrl] | % Ctrl [17] [% Ctrl] | % Ctrl [18] [% Ctrl] | % Ctrl [19] [% Ctrl] | % Ctrl [20] [% Ctrl] | further results
CN(C)C(=O)c1ccc(N2CCCN(c3ccnc4sc(C(N)=O)c(N)c34)CC2)cc1 [15u, 3-amino-4-(4-(4-(dimethylcarbamoyl)phenyl)-1,4-diazepan-1-yl)thieno[2,3-b]pyridine-2-carboxamide] | 95 | 98 | 100 | 98 | 97 | 79 | 99 | 90 | 86 | 100 | 84 | 91 | 95 | 96 | 86 | 98 | 100 | 100 | 100 | 89 | % Ctrl [21]: 98 % Ctrl; % Ctrl [22]: 100 % Ctrl; % Ctrl [23]: 94 % Ctrl; % Ctrl [24]: 75 % Ctrl; % Ctrl [25]: 100 % Ctrl; % Ctrl [26]: 96 % Ctrl; % Ctrl [27]: 92 % Ctrl; % Ctrl [28]: 99 % Ctrl; % Ctrl [29]: 100 % Ctrl; % Ctrl [30]: 95 % Ctrl; % Ctrl [31]: 100 % Ctrl; % Ctrl [32]: 97 % Ctrl; % Ctrl [33]: 33 % Ctrl; % Ctrl [34]: 100 % Ctrl; % Ctrl [35]: 90 % Ctrl; % Ctrl [36]: 95 % Ctrl
[2H]C([2H])([2H])N(C(=O)c1ccc(N2CCCN(c3ccnc4sc(C(N)=O)c(N)c34)CC2)cc1)C([2H])([2H])[2H] [15u_D6, 3-amino-4-(4-(4-(bis(methyl-d3)carbamoyl)phenyl)-1,4-diazepan-1-yl)thieno[2,3-b]pyridine-2-carboxamide] | 100 | 100 | 100 | 98 | 100 | 100 | 96 | 80 | 100 | 89 | 66 | 94 | 100 | 75 | 83 | 91 | 85 | 100 | 96 | 97 | % Ctrl [21]: 73 % Ctrl; % Ctrl [22]: 92 % Ctrl; % Ctrl [23]: 100 % Ctrl; % Ctrl [24]: 84 % Ctrl; % Ctrl [25]: 87 % Ctrl; % Ctrl [26]: 92 % Ctrl; % Ctrl [27]: 64 % Ctrl; % Ctrl [28]: 98 % Ctrl; % Ctrl [29]: 85 % Ctrl; % Ctrl [30]: 92 % Ctrl; % Ctrl [31]: 84 % Ctrl; % Ctrl [32]: 84 % Ctrl; % Ctrl [33]: 12 % Ctrl; % Ctrl [34]: 91 % Ctrl; % Ctrl [35]: 100 % Ctrl; % Ctrl [36]: 92 % Ctrl
